Read-outs that look alike come from different tables or passages of the source.
What was measured:
[1] = test system: neuropathological non-AD fibroblasts
control fibroblasts = conditions: after 100 MM TEA addition, control cells n=4
Method: (§1) Patch-clamp experiments were performed at room temperature (21-23° C.), following standard procedures set forth in Sakmann, B. and Neher, E. (1983) Single Channels Recordings (Plenum New York) and Kukuljan, M., et al. (1991) J. Membrane Biol. 119:187. Before recordings, […] culture medium was replaced with the following solution: 150 mM NaCl, 5 mM KCl, 2 mM CaCl2, 1 MM MgCl2, 10 mM HEPES […] pH=7.4. Pipettes were made from Blue Tip capillary tubes (I.D. 1.1-1.2 mm) using a BB-CH Mecanex puller, and then filled with a high potassium solution of 140 mM KCl, 2 mM CaCl2, 1 mM MgCl2, 10 mM HEPES (NaOH), pH=7.4. Pipette resistances were approximately 6 MΩ. Records were obtained using an Axopatch-1C amplifier (dc-10 kHz), stored on tape (Toshiba PCM-video recorder), and later transferred to a personal computer using an Axolab interface. Only recordings lasting for at least 3 minutes were considered for final analysis. The pClamp suite of programs was used for single-channel data acquisition and analysis. Amplifier, interface and software were obtained from Axon Instruments (Foster City, Calif.).

[2] = test system: cultured fibroblasts (AD, controls, Es)
Method: Culture medium was removed and cells were washed at least three times with BSS (in mM: NaCl 140, KCl 5, CaCl2 2.5, MgCl2 1.5, HEPES 10, Glucose 5, pH=7.4). The fluorescent probe was loaded by incubating the cells in 2 μM (in BSS) fura 2-AM (Molecular Probes) for 60 min at room temperature. After loading, cells were washed thoroughly with BSS or BSS-0 Ca^2+ (in mM: NaCl 140, KCl 5, CaCl2 0.1, MgCl2 1.5, EGTA 1, HEPES 10, Glucose 5, pH=7.4). After washes, 1 ml of fresh solution was added for intracellular Ca^2+ baseline measurements. […] This solution was adjusted in order to introduce no osmolality changes. […] Bradykinin (Calbiochem) in BSS and BSS-0 Ca^2+ (1 ml) was also used at concentrations of 100 pM, 1 nm and 10 nM. Fluorescent images at 340 and 380 nm were acquired at a rate of 2.6/sec. for 200 sec, with a Hamamatsu Argus 50 system (Hamamatsu Photonics). The objective lens was a 10×Nikon fluor. Only the ¼ evenly illuminated area of the whole image was acquired. Individual ratio values were obtained off-line for all cells within the area of interest. Three to five dishes of a given cell line were used for each experimental condition. The number of cells measured per cell line was at least 50. In most cases, experiments for each cell line were repeated on at least one separate occasion (minimum one week interval).

[3] = test system: human skin fibroblasts (AD, AC, YC); conditions: for TEA Response Blind / TEA Response Non Blind: one cell line per table line
Method: Thirteen AD, ten AC, and six YC were used for the calcium-imaging experiments. Culture medium was replaced and washed three times with basal salt solution (“BSS”) consisting of 140 mM NaCl, 5 mM KCl2.5 mM CaCl2, 1.5 mm MgCl2, 5 mM glucose, 10 mM HEPES (NaOH), pH 7.4. Nominally Ca^2+ free BSS was prepared as BSS without adding CaCl2.
Fura-2 (acetyloxymethyl ester) (Fura-2AM) was purchased from Molecular Probes (Eugene, Oreg.) and stored as a 1 mM solution in dimethylsulfoxide. Fura-2AM was added to a final concentration of 2 µM and cells were incubated at room temperature (21°-23° C.) for 60 minutes. After incubation, cells were washed at least three times with BSS at room temperature before [Ca^2+]i determinations. Fluorescence was measured with a Hamamatsu ARGUS 50 imaging system (Hamamatsu Photonics, Japan) under the control of a personal computer (Hamamatsu imaging software package). Excitation at 340 nm and 380 nm was attenuated with neutral density filters. Fluorescent images were obtained with a 400 nm dichroic mirror and a 510 nm long-pass barrier filter. The objective lens was an X10 Nikon UV fluor. Fluorescence was measured within a uniformly illuminated fraction (¼) of the whole image.
The averaged Ca^2+ responses within 15×15 pixels in cytosolic and in nuclear cellular compartments obtained were quantified with ratios between emitted 510 nm fluorescence activated at 340 nm and fluorescence emitted at 510 nm with activation at 380 nm. These ratios were transformed to absolute values of [Ca^2+], after calibration based on the following equation:
R=Rmax+(Rmin−Rmax)/(1+([Ca^2+]i/Kd)^b).
Here R denotes fluorescence intensity illuminated by 340 nm divided by fluorescence intensity illuminated by 380 nm (F340/F380), and Rmax and Rmin are the values of R when the concentration of calcium is at a maximum and a minimum (i.e., the maximum and minimum value measurable by the machine under the measuring conditions), respectively. Kd is a dissociation constant of fura-2 for Ca^2+ and was determined as 240 nM. The value of b, which determined the degree of asymmetry, was 1.2. […] A response of 100% [Ca^+2]i elevation in at least 10% of cells in a line was, therefore, considered to be a conservative criterion for a positive response.

166 pS K^+ channel = assay: Patch-clamp, cell-free patches: channel sensitivity to blockers; format: cell-based, human; conditions: outside-out patches
Method: as §1

113 pS K^+ channel = assay: as above; format: cell-based, human; conditions: outside-out patches, n=4 YC, n=3 AC
Method: as §1

[4] = 100 mM TEA, Age-Matched Control Fibroblasts
[5] = 100 mM TEA, Young Control Fibroblasts
[6] = Alzheimer's Patients, total 738 cells
[7] = Young Controls, total 532 cells

CC[N+](CC)(CC)CC [TEA, tetraethylammonium]
TEA ([1]; Parkinson's donor cell line): +
TEA ([1]; Schizophrenia donors, one cell line per table line): +
TEA ([1]; Wernicke-Kors. donors, one cell line per table line): +
depolarization of control cells (control fibroblasts): 13-20 mV
% of responding cells in Es cell lines ([2]; 100 mM TEA, 3 Es cell lines): lower % of responding cells
number of control cell lines with significant Ca^2+ elevations meeting CR ([2]; 100 mM TEA, 11 control cell lines): 11
number of AD cell lines that did not meet CR ([2]; 100 mM TEA, 14 AD cell lines): 10
% of responding cells in AD cell lines compared to controls ([2]; TEA-induced responses): significantly reduced
[Ca^2+]i elevation in response to TEA ([3]; 1 mM TEA, YC fibroblasts): elevated
[Ca^2+]i elevation in response to TEA ([3]; 10 mM TEA, AC fibroblasts): elevated
[Ca^2+]i elevation in response to TEA ([3]; 10 mM TEA, YC fibroblasts): elevated
[Ca^2+]i elevation in response to TEA ([3]; 100 mM TEA, AC fibroblasts): elevated
return of [Ca^2+]i to basal levels ([3]; 100 mM TEA, YC and AC fibroblasts): 100 s
[Ca^2+]i elevation in response to TEA ([3]; 100 mM TEA, YC fibroblasts): elevated
TEA Response Blind [3, 4]: +
TEA Response Non Blind [3, 4]: +
TEA Response Blind ([3]; 100 mM TEA, Alzheimer's Disease Fibroblasts): −
TEA Response Non Blind ([3]; 100 mM TEA, Alzheimer's Disease Fibroblasts, criterion 100% elevation in at least 10% of cells): −
TEA Response Blind [3, 5]: +
TEA Response Non Blind [3, 5]: +
Number of Cell Lines, Increase in [Ca^+2]i with 100 mM TEA ([3]; Aged Controls, total 10 cell lines): 10
Number of Cells, Increase in [Ca^+2]i with 100 mM TEA ([3]; Aged Controls, total 417 cells): 119
Percent of cells, Increase in [Ca^+2]i with 100 mM TEA ([3]; Aged Controls, total 417 cells): 29%
Number of Cell Lines, Increase in [Ca^+2]i with 100 mM TEA ([3]; Alzheimer's Patients, total 13 cell lines): 0
Number of Cells, Increase in [Ca^+2]i with 100 mM TEA [3, 6]: 4
Percent of cells, Increase in [Ca^+2]i with 100 mM TEA [3, 6]: 0.5%
cells with a minimum of 100% [Ca^+2]i elevation ([3]; TEA application, every control cell line except one young control): at least 18 % of cells
cells with 100% [Ca^+2]i elevation ([3]; TEA application, the only AD cell line with any response): 4 % of cells
Number of Cell Lines, Increase in [Ca^+2]i with 100 mM TEA ([3]; Young Controls, total 6 cell lines): 5
Number of Cells, Increase in [Ca^+2]i with 100 mM TEA [3, 7]: 145
Percent of cells, Increase in [Ca^+2]i with 100 mM TEA [3, 7]: 27%
sensitivity of the 166 pS channel to TEA (166 pS K^+ channel): only the 113 PS channel was sensitive
sensitivity of the 113 pS channel to TEA (113 pS K^+ channel): sensitive

Reference: patent US20020098520A1, “Cell tests and diagnostic index for alzheimer's disease” (priority 1993, published 2002)
